{"source": "the supplement of paper PMC10307832"}
{"compound": "C1=CC2=C(C=C(C(=C2N=C1)O)N=NC3=CC4=C(C=C3)C=C(C=C4)S(=O)(=O)O)S(=O)(=O)O + CC(=O)c1c(C)c2cnc(Nc3ccc(N4CCNCC4)cn3)nc2n(C2CCCC2)c1=O [Palbociclib] (partner 0.5 µM)", "experiment": "relative viability (nuclei count vs DMSO), 5 days (fraction); higher = more cells survive", "conditions": "first compound 0.08 µM", "summary_of_the_method": "(§1)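 Medians of duplicate plates are given as relative viability. That measure is the nuclei count in treated wells divided by the count in vehicle wells. Counts were taken on 4× images of lung cancer cell lines in 1536-well plates, 5 days after pin-tool dosing the day after seeding with one drug alone or a fixed anchor-drug dose plus five library-drug doses (not always all listed) in √10 steps.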"}
{"cell line": "NCI-H647", "relative viability": 0.413}
{"cell line": "CAL-12T", "relative viability": 0.471}
{"cell line": "NCI-H1651", "relative viability": 0.522}
{"cell line": "EPLC-272H", "relative viability": 0.369}
{"cell line": "NCI-H2228", "relative viability": 0.81}
{"cell line": "NCI-H1792", "relative viability": 0.674}
{"cell line": "NCI-H1355", "relative viability": 0.401}
{"cell line": "NCI-H3122", "relative viability": 0.215}
{"cell line": "NCI-H1437", "relative viability": 0.356}
{"cell line": "NCI-H1755", "relative viability": 0.473}
{"cell line": "NCI-H2023", "relative viability": 0.451}
{"cell line": "HCC-15", "relative viability": 0.759}
{"cell line": "NCI-H1793", "relative viability": 0.352}
{"cell line": "PC-14", "relative viability": 0.653}
{"cell line": "EKVX", "relative viability": 0.542}
{"cell line": "LC-2-ad", "relative viability": 0.573}
{"cell line": "NCI-H1944", "relative viability": 0.347}
{"cell line": "NCI-H1975", "relative viability": 0.753}
{"compound": "C1=CC2=C(C=C(C(=C2N=C1)O)N=NC3=CC4=C(C=C3)C=C(C=C4)S(=O)(=O)O)S(=O)(=O)O + CC(=O)c1c(C)c2cnc(Nc3ccc(N4CCNCC4)cn3)nc2n(C2CCCC2)c1=O [Palbociclib] (partner 0.5 µM)", "experiment": "relative viability (nuclei count vs DMSO), 5 days (fraction); higher = more cells survive", "conditions": "first compound 0.253 µM", "summary_of_the_method": "as §1"}
{"cell line": "NCI-H322M", "relative viability": 0.462}
{"cell line": "LCLC-97TM1", "relative viability": 0.258}
{"cell line": "NCI-H2009", "relative viability": 0.22}
{"cell line": "A-427", "relative viability": 0.547}
{"cell line": "NCI-H441", "relative viability": 0.206}
{"cell line": "NCI-H661", "relative viability": 0.407}
{"cell line": "NCI-H1734", "relative viability": 0.323}
{"cell line": "NCI-H460", "relative viability": 0.081}
{"cell line": "NCI-H2347", "relative viability": 0.447}
{"cell line": "SK-LU-1", "relative viability": 0.391}
{"cell line": "NCI-H1395", "relative viability": 0.614}
{"cell line": "201T", "relative viability": 0.366}
{"cell line": "NCI-H1915", "relative viability": 0.523}
{"cell line": "HCC-827", "relative viability": 0.451}
{"cell line": "LXF-289", "relative viability": 0.551}
{"cell line": "NCI-H23", "relative viability": 0.471}
{"cell line": "NCI-H647", "relative viability": 0.404}
{"cell line": "CAL-12T", "relative viability": 0.352}
{"cell line": "NCI-H1651", "relative viability": 0.502}
{"cell line": "EPLC-272H", "relative viability": 0.31}
{"cell line": "NCI-H2228", "relative viability": 0.726}
{"cell line": "NCI-H1792", "relative viability": 0.654}
{"cell line": "NCI-H1355", "relative viability": 0.372}
{"cell line": "NCI-H3122", "relative viability": 0.185}
{"cell line": "NCI-H1437", "relative viability": 0.321}
{"cell line": "NCI-H1755", "relative viability": 0.438}
{"cell line": "NCI-H2023", "relative viability": 0.395}
{"cell line": "HCC-15", "relative viability": 0.658}
{"cell line": "NCI-H1793", "relative viability": 0.327}
{"cell line": "PC-14", "relative viability": 0.52}
{"cell line": "EKVX", "relative viability": 0.359}
{"cell line": "LC-2-ad", "relative viability": 0.493}
{"cell line": "NCI-H1944", "relative viability": 0.323}
{"cell line": "NCI-H1975", "relative viability": 0.592}
{"compound": "C1=CC2=C(C=C(C(=C2N=C1)O)N=NC3=CC4=C(C=C3)C=C(C=C4)S(=O)(=O)O)S(=O)(=O)O + CC(=O)c1c(C)c2cnc(Nc3ccc(N4CCNCC4)cn3)nc2n(C2CCCC2)c1=O [Palbociclib] (partner 0.5 µM)", "experiment": "relative viability (nuclei count vs DMSO), 5 days (fraction); higher = more cells survive", "conditions": "first compound 0.8 µM", "summary_of_the_method": "as §1"}
{"cell line": "NCI-H322M", "relative viability": 0.501}
{"cell line": "LCLC-97TM1", "relative viability": 0.189}
{"cell line": "NCI-H2009", "relative viability": 0.245}
{"cell line": "A-427", "relative viability": 0.512}
{"cell line": "NCI-H441", "relative viability": 0.21}
{"cell line": "NCI-H661", "relative viability": 0.44}
{"cell line": "NCI-H1734", "relative viability": 0.344}
{"cell line": "NCI-H460", "relative viability": 0.183}
{"cell line": "NCI-H2347", "relative viability": 0.44}
{"cell line": "SK-LU-1", "relative viability": 0.344}
{"cell line": "NCI-H1395", "relative viability": 0.616}
{"cell line": "201T", "relative viability": 0.366}
{"cell line": "NCI-H1915", "relative viability": 0.488}
{"cell line": "HCC-827", "relative viability": 0.492}
{"cell line": "LXF-289", "relative viability": 0.559}
{"cell line": "NCI-H23", "relative viability": 0.448}
{"cell line": "NCI-H647", "relative viability": 0.386}
{"cell line": "CAL-12T", "relative viability": 0.415}
{"cell line": "NCI-H1651", "relative viability": 0.511}
{"cell line": "EPLC-272H", "relative viability": 0.325}
{"cell line": "NCI-H2228", "relative viability": 0.79}
{"cell line": "NCI-H1792", "relative viability": 0.673}
{"cell line": "NCI-H1355", "relative viability": 0.368}
{"cell line": "NCI-H3122", "relative viability": 0.176}
{"cell line": "NCI-H1437", "relative viability": 0.308}
{"cell line": "NCI-H1755", "relative viability": 0.437}
{"cell line": "NCI-H2023", "relative viability": 0.391}
{"cell line": "HCC-15", "relative viability": 0.737}
{"cell line": "NCI-H1793", "relative viability": 0.283}
{"cell line": "PC-14", "relative viability": 0.548}
{"cell line": "EKVX", "relative viability": 0.35}
{"cell line": "LC-2-ad", "relative viability": 0.499}
{"cell line": "NCI-H1944", "relative viability": 0.337}
{"cell line": "NCI-H1975", "relative viability": 0.606}
{"compound": "C1=CC2=C(C=C(C(=C2N=C1)O)N=NC3=CC4=C(C=C3)C=C(C=C4)S(=O)(=O)O)S(=O)(=O)O + CC(=O)c1c(C)c2cnc(Nc3ccc(N4CCNCC4)cn3)nc2n(C2CCCC2)c1=O [Palbociclib] (partner 0.5 µM)", "experiment": "relative viability (nuclei count vs DMSO), 5 days (fraction); higher = more cells survive", "conditions": "first compound 2.53 µM", "summary_of_the_method": "as §1"}
{"cell line": "NCI-H322M", "relative viability": 0.454}
{"cell line": "LCLC-97TM1", "relative viability": 0.222}
{"cell line": "NCI-H2009", "relative viability": 0.214}
{"cell line": "A-427", "relative viability": 0.541}
{"cell line": "NCI-H441", "relative viability": 0.209}
{"cell line": "NCI-H661", "relative viability": 0.443}
{"cell line": "NCI-H1734", "relative viability": 0.375}
{"cell line": "NCI-H460", "relative viability": 0.279}
{"cell line": "NCI-H2347", "relative viability": 0.482}
{"cell line": "SK-LU-1", "relative viability": 0.399}
{"cell line": "NCI-H1395", "relative viability": 0.572}
{"cell line": "201T", "relative viability": 0.366}
{"cell line": "NCI-H1915", "relative viability": 0.545}
{"cell line": "HCC-827", "relative viability": 0.455}
{"cell line": "LXF-289", "relative viability": 0.608}
{"cell line": "NCI-H23", "relative viability": 0.574}
{"cell line": "NCI-H647", "relative viability": 0.387}
{"cell line": "CAL-12T", "relative viability": 0.481}
{"cell line": "NCI-H1651", "relative viability": 0.55}
{"cell line": "EPLC-272H", "relative viability": 0.371}
{"cell line": "NCI-H2228", "relative viability": 0.822}
{"cell line": "NCI-H1792", "relative viability": 0.667}
{"cell line": "NCI-H1355", "relative viability": 0.395}
{"cell line": "NCI-H3122", "relative viability": 0.2}
{"cell line": "NCI-H1437", "relative viability": 0.3}
{"cell line": "NCI-H1755", "relative viability": 0.468}
{"cell line": "NCI-H2023", "relative viability": 0.421}
{"cell line": "HCC-15", "relative viability": 0.67}
{"cell line": "NCI-H1793", "relative viability": 0.3}
{"cell line": "PC-14", "relative viability": 0.597}
{"cell line": "EKVX", "relative viability": 0.48}
{"cell line": "LC-2-ad", "relative viability": 0.493}
{"cell line": "NCI-H1944", "relative viability": 0.359}
{"cell line": "NCI-H1975", "relative viability": 0.639}
{"compound": "C1=CC2=C(C=C(C(=C2N=C1)O)N=NC3=CC4=C(C=C3)C=C(C=C4)S(=O)(=O)O)S(=O)(=O)O + CC(=O)c1c(C)c2cnc(Nc3ccc(N4CCNCC4)cn3)nc2n(C2CCCC2)c1=O [Palbociclib] (partner 0.5 µM)", "experiment": "relative viability (nuclei count vs DMSO), 5 days (fraction); higher = more cells survive", "conditions": "first compound 8 µM", "summary_of_the_method": "as §1"}
{"cell line": "NCI-H322M", "relative viability": 0.514}
{"cell line": "LCLC-97TM1", "relative viability": 0.257}
{"cell line": "NCI-H2009", "relative viability": 0.192}
{"cell line": "A-427", "relative viability": 0.482}
{"cell line": "NCI-H441", "relative viability": 0.216}
{"cell line": "NCI-H661", "relative viability": 0.421}
{"cell line": "NCI-H1734", "relative viability": 0.329}
{"cell line": "NCI-H460", "relative viability": 0.229}
{"cell line": "NCI-H2347", "relative viability": 0.426}
{"cell line": "SK-LU-1", "relative viability": 0.428}
{"cell line": "NCI-H1395", "relative viability": 0.628}
{"cell line": "201T", "relative viability": 0.35}
{"cell line": "NCI-H1915", "relative viability": 0.494}
{"cell line": "HCC-827", "relative viability": 0.542}
{"cell line": "LXF-289", "relative viability": 0.553}
{"cell line": "NCI-H23", "relative viability": 0.477}
{"cell line": "NCI-H647", "relative viability": 0.37}
{"cell line": "CAL-12T", "relative viability": 0.351}
{"cell line": "NCI-H1651", "relative viability": 0.499}
{"cell line": "EPLC-272H", "relative viability": 0.316}
{"cell line": "NCI-H2228", "relative viability": 0.92}
{"cell line": "NCI-H1792", "relative viability": 0.597}
{"cell line": "NCI-H1355", "relative viability": 0.429}
{"cell line": "NCI-H3122", "relative viability": 0.216}
{"cell line": "NCI-H1437", "relative viability": 0.352}
{"cell line": "NCI-H1755", "relative viability": 0.415}
{"cell line": "NCI-H2023", "relative viability": 0.309}
{"cell line": "HCC-15", "relative viability": 0.723}
{"cell line": "NCI-H1793", "relative viability": 0.271}
{"cell line": "PC-14", "relative viability": 0.474}
{"cell line": "EKVX", "relative viability": 0.344}
{"cell line": "LC-2-ad", "relative viability": 0.528}
{"cell line": "NCI-H1944", "relative viability": 0.327}
{"cell line": "NCI-H1975", "relative viability": 0.666}
{"compound": "C1=CC2=C(C=C(C(=C2N=C1)O)N=NC3=CC4=C(C=C3)C=C(C=C4)S(=O)(=O)O)S(=O)(=O)O + N=C(N)NC(=N)NCCc1ccccc1 [Phenformin] (partner 250 µM)", "experiment": "relative viability (nuclei count vs DMSO), 5 days (fraction); higher = more cells survive", "conditions": "first compound 0.08 µM", "summary_of_the_method": "as §1"}
{"cell line": "NCI-H322M", "relative viability": 0.877}
{"cell line": "LCLC-97TM1", "relative viability": 0.403}
{"cell line": "NCI-H2009", "relative viability": 0.498}
{"cell line": "A-427", "relative viability": 0.324}
{"cell line": "NCI-H441", "relative viability": 0.918}
{"cell line": "NCI-H661", "relative viability": 0.286}
{"cell line": "NCI-H1734", "relative viability": 0.398}
